These results are taken from patent US6750232B2, “2-aminopyridine compounds and use thereof as drugs” (Eisai Co., Ltd., priority 2000, dated 2004).

The target of assay [1] is T1, adenosine A2a receptor (Homo sapiens, UniProt P29274).
T1 construct: purchased Receptor Biology Inc
Nature of the assay: Measurement of the ability to bind to adenosine A2a receptor (3H-CGS21680 binding inhibition). The following applies: A2a receptor membrane sample, 3H-CGS21680, Cheng-Prusoff. Here is the method: Measurement of the Ability to Bind to Adenosine A2a Receptor
An experiment of inhibition of binding to adenosine A2a receptor was conducted using a membrane sample (Receptor Biology Inc.) where an adenosine A2a receptor cDNA was expressed in excess. This membrane sample was added at a protein concentration of 22.2 μg/ml to, and suspended in, 20 mM HEPES buffer, pH 7.4 (10 mM MgCl2 and 100 mM NaCl). To 0.45 ml of this membrane sample suspension were added 0.025 ml of 500 nM tritium-labeled 2-p-[2-carboxyethyl]phenetylamino-5′-N-ethylarboxyamide adenosine (^3H—CGS21680, from NEN) and 0.025 ml test compound. This mixture was left at 25° C. for 90 minutes, filtered rapidly under suction through a glass fiber filter (GF/B, from Whatman), and immediately washed twice with 5 ml of 50 mM water-cooled Tris-HCl buffer. Thereafter, the glass fiber filter was transferred to a vial, a scintillator was added thereto, and the radioactivity on the filter was measured by a liquid scintillation counter. The inhibition of binding of ^3H—CGS21680 to A2a receptor by the test compound was determined using the following formula, and from this inhibition, 50% inhibition concentration (IC50) was calculated.
Inhibition (%)=[1−{binding in the presence of the test compound-nonspecific binding)/(total binding-nonspecific binding)}]×100
Here, the total binding means ^3H—CGS21680-bound radioactivity in the absence of the test compound; the nonspecific binding means ^3H—CGS21680-bound radioactivity in the presence of 100 μM RPIA; and the binding in the presence of the test compound means ^3H—CGS21680-bound radioactivity in the […] of the test compound at predetermined concentrations. The inhibition constant (Ki value) in the table was determined from the formula of Cheng-Prusoff.

In assay [2] the test system is SD IGS rats. Nature of the assay: Evaluation of defecation-promoting action. The following applies: oral, 90 minutes after administration, per cage. It is filed as in vivo, rat. The text has this:
Evaluation of Defecation-Promoting Action
The defecation-promoting action of the adenosine A2b receptor-inhibiting compound which was identified by measuring the binding ability and inhibitory ability thereof to the adenosine receptor in Test Example 1, a salt thereof, a hydrate of them, or a pharmaceutical composition containing it can be evaluated on the basis of the following method. That is, SD IGS rats (6 weeks-old, from Charles River) were placed in cages (3 animals/cage) and preliminarily allowed food and water ad libitum and raised for 1 week. Then, a tared water-absorbing sheet was placed below each cage, and the animals were fasted but allowed water ad libitum throughout the experiment. After 1.5 hours, the fecal pellets were recovered from each cage and observed for abnormality before the experiment. The compound suspended or dissolved in 0.5% (w/v) methyl cellulose (MC) was orally administered in a dose of 5 ml/kg. On one hand, 0.5% (w/v) MC only was orally given to the control group. After administration of the compound, the rats were returned to the cage provided with a new water-absorbing sheet, and 90 minutes after the administration, the fecal pellets on the water-absorbing sheet were recovered from each cage, and the external appearance was observed, and then counted and weighed. The number of fecal pellets is expressed per each cage. After the fecal pellets were recovered, the water-absorbing sheet was weighed, and the weight determined by subtracting the initial weight of the water-adsorbing sheet from the weight after the experiment was regarded as the volume of urine.

Assay [3] deals with T2, human adenosine A1 receptor (Homo sapiens, UniProt P30542).
T2 construct: expressed in transfected cells; host or cells: CHOK1 cells (membrane sample)
T2 sequence (P30542 1-326): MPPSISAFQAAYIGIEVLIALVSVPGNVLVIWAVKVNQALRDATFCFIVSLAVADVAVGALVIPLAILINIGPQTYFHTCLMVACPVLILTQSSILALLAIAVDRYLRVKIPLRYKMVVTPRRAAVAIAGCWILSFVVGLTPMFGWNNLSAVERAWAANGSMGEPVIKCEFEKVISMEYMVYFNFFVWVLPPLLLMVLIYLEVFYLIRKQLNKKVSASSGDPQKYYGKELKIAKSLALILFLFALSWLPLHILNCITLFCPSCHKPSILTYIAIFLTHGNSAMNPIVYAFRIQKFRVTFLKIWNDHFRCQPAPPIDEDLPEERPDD
As to the kind of experiment: Measurement of the ability to bind to adenosine A1 receptor (3H-CCPA binding inhibition). Particulars: membrane of CHOK1 cells expressing human A1 receptor, Cheng-Prusoff. Here is the method: Measurement of the Ability to Bind to Adenosine A1 Receptor
A human adenosine A1 receptor cDNA was expressed in excess in CHOK1 cells, and this membrane sample was added at a protein concentration of 66.7 μg/ml to, and suspended in, 20 mM HEPES buffer, pH 7.4 (10 mM MgCl2, 100 mM NaCl). To 0.45 ml of this membrane sample suspension were added 0.025 ml of 60 nM tritium-labeled chlorocyclopentyl adenosine (^3H—CCPA, from NEN Ltd.) and 0.025 ml test compound. This mixture was left at 30° C. for 120 minutes, filtered rapidly under suction through a glass fiber filter (GF/B, from Whatman), and immediately washed twice with 5 ml of 50 mM water-cooled Tris-HCl buffer. Thereafter, the glass fiber filter was transferred to a vial, a scintillator was added thereto, and the radioactivity on the filter was measured by a liquid scintillation counter. The inhibition of binding of ^3H—CCPA to A1 receptor by the test compound was determined using the following formula, and from this inhibition, 50% inhibition concentration (IC50) was calculated (the following equation).
Inhibition (%)=[1−{binding in the presence of the test compound-non-specific binding)/(total binding-non-specific binding)}]×100
In the above formula, the total binding means ^3H—CCPA-bound radioactivity in the absence of the test compound; the non-specific binding means ^3H—CCPA-bound radioactivity in the presence of 100 μM RPIA ([R]-[1-methyl-2-phenylethyl] adenosine); and the binding in the presence of the test compound means ^3H—CCPA-bound radioactivity in the presence of the test compound at predetermined concentrations. The inhibition constant (Ki value) in the table was determined from the formula of Cheng-Prusoff.

The target of assay [4] is T3, human adenosine A2b receptor (Homo sapiens, UniProt P29275).
T3 construct: expressed in transfected cells; host or cells: CHOK1 cells
T3 sequence (P29275 1-332): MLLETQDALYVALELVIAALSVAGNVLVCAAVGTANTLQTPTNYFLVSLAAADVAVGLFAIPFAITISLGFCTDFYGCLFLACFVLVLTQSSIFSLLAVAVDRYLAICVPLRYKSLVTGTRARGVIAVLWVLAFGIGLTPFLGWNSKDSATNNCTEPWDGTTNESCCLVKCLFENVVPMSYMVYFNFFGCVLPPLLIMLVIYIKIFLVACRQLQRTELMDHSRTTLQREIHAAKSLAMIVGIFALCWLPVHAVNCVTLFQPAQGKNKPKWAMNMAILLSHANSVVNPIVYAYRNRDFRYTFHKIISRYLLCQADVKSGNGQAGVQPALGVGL
As to the kind of experiment: Inhibition of NECA-stimulated production of cAMP in adenosine A2b receptor-expressing cells. It is filed as cell-based. The following applies: CHOK1 cells expressing human A2b receptor, 30 nM NECA. The method, then: Experiment of Inhibition of NECA-stimulated Production of cAMP in Adenosine A2b Receptor-expressing Cells
CHOK1 cells where a human adenosine A2b receptor had been expressed in excess were plated onto a 24-well plate at a density of 1.5×10^5 cells/well, cultured overnight, and used in the experiment. The degree of inhibitory effect of the test compound on the amount of cAMP produced by stimulation with 30 nM 5′-N-ethylcarboxyamide adenosine (NECA from Sigma) was evaluated in terms of affinity for A2b receptor. That is, the adhering cells were washed twice with 2 ml/well Krebs-Ringer buffer solution (containing 0.1% BSA; pH 7.4) and pre-incubated for 30 minutes in a volume of 0.5 ml/well. Then, a mixed solution containing NECA and the test compound was added in a volume of 0.1 ml/well in the presence of a phosphodiesterase inhibitor Ro-20-1724 (a product of RBI). After pre-incubation for 15 minutes, the reaction was terminated with 0.1 N HCl in a volume of 300 μl/well. Measurement of intracellular cAMP was carried out using a cAMP enzyme immunoassay kit produced by Amersham. The inhibition of NECA-stimulated production of cAMP by the test compound was determined using the following equation:
Inhibition (%)=[1−{(amount of cAMP in the coexistence of NECA and the test compound-amount of CAMP in only the Krebs-Ringer buffer solution)/(amount of CAMP upon stimulation with NECA only-amount of cAMP in only the Krebs-Ringer buffer solution)}]×100

As usually defined, the Ki is the dissociation constant of the complex between target and ligand, obtained from inhibition or displacement. For orientation: IC50 means the point on the concentration scale where inhibition reaches its midpoint. Read a high IC50 as weaker potency in that assay.

T1 sequence (P29274 whole entry): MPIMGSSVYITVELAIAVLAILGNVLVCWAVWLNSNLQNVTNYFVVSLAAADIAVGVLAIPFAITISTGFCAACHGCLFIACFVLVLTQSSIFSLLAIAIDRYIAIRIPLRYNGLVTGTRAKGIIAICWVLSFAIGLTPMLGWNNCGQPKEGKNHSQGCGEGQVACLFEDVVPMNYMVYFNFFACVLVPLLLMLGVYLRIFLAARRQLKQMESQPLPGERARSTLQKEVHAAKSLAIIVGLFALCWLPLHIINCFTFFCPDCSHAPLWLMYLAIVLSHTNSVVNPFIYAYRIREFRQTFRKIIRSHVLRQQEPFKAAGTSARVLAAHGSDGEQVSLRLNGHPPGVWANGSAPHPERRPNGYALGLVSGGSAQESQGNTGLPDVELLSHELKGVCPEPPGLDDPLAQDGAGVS

With “2-Amino-6-(fluorophenyl)-5-(4-pyridyl)-3-pyridinecarbonitrile [Example 2]”, the Ki in assay [1] amounted to 22 nM; in assay [3], 66 nM. In addition, the “The number of fecal pellets” value is 7.80 ± 0.20 in assay [2] (1 mg/kg) and 18.00 ± 1.30 in assay [2] (10 mg/kg). In assay [4], this molecule displayed an IC50 of 3.7 nM.
`CCn1cc(-c2cc(C#N)c(N)nc2-c2ccco2)ccc1=O` [Example 5, 2-Amino-5-(1-ethyl-6-oxo-1,6-dihydro-3-pyridinyl)-6-(2-furyl)nicotinonitrile]: the results for the Ki in assay [1] and in assay [3] were 7 nM and 400 nM, respectively. Moreover, the results for the “The number of fecal pellets” value in assay [2] (1 mg/kg) and in assay [2] (3 mg/kg) were 7.00 ± 1.23 and 14.25 ± 3.38, respectively. Further, half-maximal inhibition in assay [4] (IC50) required 6.5 nM.
For `N#Cc1cc(-c2ccncc2)c(-c2ccco2)nc1N` [Example 1, 2-Amino-6-(2-furyl)-5-(4-pyridyl)-3-pyridinecarbonitrile], the inhibitory constant (Ki) in assay [1] was 23 nM; in assay [3] it was 990 nM. The “The number of fecal pellets” value in assay [2] (1 mg/kg) was 1.75 ± 1.03; in assay [2] (3 mg/kg), 7.25 ± 1.65; in assay [2] (10 mg/kg) it was 22.25 ± 2.93. In assay [4], the IC50 worked out at 2.7 nM.
